27 compounds from PubChem BioAssay (NCI) can be followed below.

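Following 48 hours of exposure in 96-well plates, responses at five concentrations were used to interpolate endpoints linearly. GI50: concentration for 50% inhibition of growth. TGI marks complete inhibition of growth.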 Bounds are passed on as bounds.

Assay in all cases: growth of human tumour cells (NCI), 48 h
Assay [1] deals with UACC-62 melanoma.
Assay [2] relates to SN12C renal.
Assay [3] relates to NCI-H522 lung.
Assay [4] relates to SF-295 CNS.
For assay [5], the system named is SW-620 colon.
Assay [6] has as its system HCC-2998 colon.
Assay [7] has as its system HOP-62 NSCLC.
Assay [8] has as its system OVCAR-5 ovarian.
Assay [9] relates to MCF7 breast.
In assay [10] the test system is SNB-75 CNS.
Assay [11] deals with SK-OV-3 ovarian.

`COc1ccc(NS(=O)c2c(C)cc(C)cc2C)cc1` (configuration not stated): the TGI in [1], in assay [2], in assay [3], in assay [4], in assay [5] and in assay [6] was greater than 100 µM throughout. The TGI in [7], in assay [8] and in [9] was greater than 100 µM throughout.
On to `COC(=O)[C@]1(C)CCC[C@]2(C)[C@@H](CCC(=O)C(C)C)[C@]3(C=O)O[C@@H]3C[C@H]21`, for which the TGI is greater than 100 µM in [1]; greater than 100 µM in assay [2]; 46.6 µM in assay [3]; greater than 100 µM in [4]; greater than 100 µM in [5]; 63.9 µM in [10]. The TGI in [11], in [6], in assay [8] and in [9] was greater than 100 µM each time.
Turning to `CSC1=C(C#N)C(=O)N(c2ccc(C)cc2)C(=O)C1C#N` (configuration not stated), the TGI in assay [1], in [2], in assay [3], in [4], in assay [5] and in [11] was greater than 100 µM throughout. Besides, the TGI in [6], in assay [7], in [8] and in [9] was greater than 100 µM each time.
Take `CO[C@H]1O[C@@H]2OC3(C)CCC4[C@H](C)CCC([C@H]1C)[C@]42OO3` (some centres not stated): the TGI in assay [1], in assay [2], in assay [3], in [4], in assay [5] and in [10] was greater than 100 µM in each case. In addition, the TGI in assay [11], in [6], in assay [7] and in assay [8] was greater than 100 µM in each case.
For `Cc1c(-c2nc(N)c(C#N)c(N)c2C#N)c(=O)oc2ccccc12`, the TGI in [1], in assay [2], in assay [4], in assay [5], in [10] and in assay [11] was greater than 100 µM throughout. The TGI in assay [6], in assay [7], in assay [8] and in [9] was greater than 100 µM throughout.
On to `CN1C(=O)CN2C(Cl)(Cl)C2(c2ccccc2)c2cc(Cl)ccc21` (configuration not stated), for which the TGI in [1], in [2], in assay [3], in assay [4], in [5] and in [11] was greater than 100 µM throughout. Moreover, the TGI in assay [6], in [7] and in assay [8] was greater than 100 µM throughout.
On to `NCCCn1c2c(c3ccc([N+](=O)[O-])cc3c1=O)C(=O)c1cc(F)ccc1-2`, for which the GI50 in [1] is 0.036 µM; in [2], 0.0439 µM; in [3] it was less than 0.01 µM; in assay [4], 0.0157 µM; in assay [10], 0.023 µM; in [11], 0.0139 µM. Further, the values for the GI50 in [6] and in [8] were 0.0367 µM and 0.122 µM, respectively. Also, the TGI stood at 0.165 µM in [1]; 0.805 µM in [2]; 0.116 µM in assay [3]; 0.142 µM in assay [4]; 0.268 µM in assay [10]; 0.349 µM in assay [11]. The TGI in assay [6] came out at 0.233 µM; in assay [8], 0.71 µM.
As to `CC(CNC(=O)c1ccccc1)(CNC(=O)c1ccccc1)[N+](=O)[O-]`, the TGI in [1], in assay [2], in [3], in assay [4], in [5] and in [10] was greater than 100 µM each time. Moreover, the TGI in assay [11], in assay [8] and in assay [9] was greater than 100 µM in each case.
Consider `CN1c2ccccc2C(=O)NC12CCNCC2`, for which the TGI in assay [1], in assay [4], in assay [5], in assay [10], in [11] and in [6] was greater than 100 µM each time. Besides, the TGI in assay [7], in assay [8] and in assay [9] was greater than 100 µM each time.
Turning to `CC(C)COP(C)(=O)C(N)(C(F)(F)F)C(F)(F)F` (configuration not stated), the TGI in assay [1], in assay [2], in assay [4], in [5], in [10] and in [11] was greater than 100 µM in each case. The TGI in assay [6], in assay [7], in [8] and in assay [9] was greater than 100 µM each time.
As to `C/C(=N\O)C1CC2C=C(C#N)C1N(Cc1ccccc1)C2` (configuration not stated), the TGI in assay [1], in assay [2], in [4], in assay [5], in assay [10] and in assay [11] was greater than 100 µM each time. Besides, the TGI in assay [6], in assay [7], in assay [8] and in [9] was greater than 100 µM throughout.
As for `Fc1cccc(C2SCc3nc4cc5ccccc5cc4n32)c1` (configuration not stated), the TGI in assay [1], in [2], in assay [4], in assay [5], in [10] and in [11] was greater than 100 µM each time. The TGI in assay [6], in assay [7], in assay [8] and in assay [9] was greater than 100 µM each time.
In the case of `COC(=O)CC(CNC(=O)OCc1ccccc1)OCc1ccc(OC)cc1` (configuration not stated), the TGI in [1], in assay [2], in [3], in assay [4], in assay [5] and in assay [10] was greater than 100 µM throughout. For the same compound, the TGI in [11], in [6], in [8] and in assay [9] was greater than 100 µM in each case.
Turning to `S=C(Nc1ccc2c(c1)oc1ccccc12)c1cccs1`, the TGI in assay [1], in assay [2], in [3], in assay [4], in assay [5] and in assay [11] was greater than 100 µM each time. Besides, the TGI in assay [6], in assay [7], in assay [8] and in assay [9] was greater than 100 µM in each case.
`C/C1=C/C[C@@H](/C(C)=C/c2csc(C)n2)OC(=O)C[C@H](O)C(C)(C)C(=O)[C@H](C)[C@@H](O)[C@@H](C)CCC1`: the TGI in assay [1] is 0.247 µM; in assay [2], 0.209 µM; in assay [3], less than 0.0001 µM; in assay [4] it was less than 0.0001 µM; in assay [5] it was 0.24 µM; in [11], 0.214 µM. Further, the TGI stood at 0.125 µM in assay [6], 0.259 µM in assay [7], 0.189 µM in [8] and 0.231 µM in assay [9].
In the case of `Oc1c(Cl)c(Cl)c(O)c(CCNc2nccs2)c1Cl`, the TGI turned out to be 40.5 µM in [1]; 49.2 µM in assay [2]; 41.5 µM in [4]; 7.72 µM in assay [5]; 42.3 µM in [10]; 30.3 µM in assay [11]. The TGI in [6] worked out at 30.3 µM; in assay [7], 40.7 µM; in assay [8] it was 39 µM; in assay [9], 10.2 µM.
As to `COC(=O)[C@@H](OC(C)=O)[C@@H](OC(C)=O)c1nnc2ccc(Cl)nn12`, the TGI was greater than 100 µM in [1]; greater than 100 µM in [2]; 95.3 µM in assay [3]; greater than 100 µM in assay [4]; greater than 100 µM in assay [5]; greater than 100 µM in [11]. Further, the TGI in assay [6], in assay [7], in assay [8] and in [9] was greater than 100 µM throughout.
As for `[N-]=[N+]=CC(=O)OCC1NC(=O)C(COC(=O)C=[N+]=[N-])NC1=O` (configuration not stated), the TGI in [1], in assay [2], in [4], in assay [5], in assay [10] and in [11] was greater than 100 µM each time. For the same compound, the TGI in assay [6], in [7], in assay [8] and in assay [9] was greater than 100 µM throughout.
With `CCCCCCCCCC/C=C/C=O`, the TGI in assay [1], in assay [2], in [3], in assay [4], in assay [5] and in assay [10] was greater than 100 µM throughout. For the same compound, the TGI in assay [11], in [6] and in [8] was greater than 100 µM throughout.
Take `C=CC(=O)NCNC(=O)C=C`: the TGI in assay [1], in [2], in assay [3], in assay [4], in assay [5] and in [10] was greater than 100 µM throughout. Moreover, the TGI in [11], in assay [6], in assay [7] and in assay [8] was greater than 100 µM throughout.
With `CCOC(=O)C1(C#N)C(C#N)(C#N)C1(C#N)C#N`, the TGI in assay [1], in assay [2], in assay [3], in assay [4], in [5] and in assay [11] was greater than 100 µM in each case. The TGI in assay [6], in assay [7], in assay [8] and in assay [9] was greater than 100 µM each time.
For the compound `O=C1CC(C(OCc2ccccc2)C(OCc2ccccc2)C(OCc2ccccc2)C(COCc2ccccc2)OCc2ccccc2)CC(=O)N1` (configuration not stated), the TGI in [2], in assay [4], in assay [5], in [10], in [6] and in assay [7] was greater than 100 µM in each case. Further, in assay [8], the TGI is greater than 100 µM.
With `O=[N+]([O-])c1ccc(CN=C2NNS(=O)(=O)c3ccccc32)cc1`, the TGI in assay [1], in assay [2], in assay [4], in assay [5], in assay [6] and in assay [8] was greater than 100 µM each time.
As for `O=C(Oc1c(Br)cc(Br)cc1C(=O)Oc1ccccc1)C(=O)Oc1c(Br)cc(Br)cc1C(=O)Oc1ccccc1`, the TGI is greater than 100 µM in assay [1]; 97.4 µM in [2]; 32.6 µM in assay [3]; greater than 100 µM in [4]; 51.1 µM in assay [5]; greater than 100 µM in assay [11]. For the same compound, the TGI in assay [6] was greater than 100 µM; in assay [7] it was 45.1 µM; in assay [8] it was 89.9 µM; in assay [9], 60.8 µM.
In the case of `CC(C)OC(=O)NNc1cccc(Cl)c1`, the TGI in assay [1], in assay [2], in [4], in assay [5], in assay [10] and in assay [11] was greater than 100 µM throughout. The TGI in assay [6], in assay [7], in [8] and in assay [9] was greater than 100 µM each time.
In the case of `O=C1CCCC2=C1CC1=C(CCCC1=O)N2c1ccc([N+](=O)[O-])cc1`, the TGI in assay [1], in assay [2], in [5], in assay [10], in assay [11] and in assay [6] was greater than 100 µM in each case. Also, the TGI in [8] and in assay [9] was greater than 100 µM in each case.
With `Nc1nc(N)c2ncn(-c3ccccc3)c2n1`, the TGI in assay [1], in assay [2], in assay [3], in assay [4], in assay [5] and in [11] was greater than 100 µM in each case. For the same compound, the TGI in assay [6], in assay [7], in assay [8] and in assay [9] was greater than 100 µM each time.
